Consider six molecules from US20080299123A1, “TREATMENT OF CHEMOTHERAPY- OR RADIOTHERAPY-RESISTANT TUMORS” (Deutsches Krebsforschungszentrum Stiftung des offentlichen …, priority 2006, published 2008).

What all share (type): cell-based, human
In one series the test system is PT45-P1res cells. The series is described as follows: Caspase-3/-7 assay in PT45-P1res cells. The note with it: for apoptosis induction after etoposide treatment (caspase-3/-7): inhibitor 10 μmol/L, 20 μg/mL etoposide 24 hours. On the procedure: (a) PT45-P1 res cells were transfected with control siRNA or with two L1CAM specific siRNAs. Western blotting for the detection of full-length L1CAM or of HSP90 as a control for equal protein load was performed (upper panel). In parallel, siRNA transfected PT45-P1res cells were treated with 20 μg/mL etoposide or not for 24 hours and caspase-3/-7 activity was determined. (b) siRNA transfected PT45-P1res cells were subjected to L1CAM immunostaining (L1-11A antibody) or staining with an isotype matched control antibody followed by flow cytometry. One representative histogram is shown. (c) siRNA transfected PT45-P1res cells were analysed by western blotting for the detection of full-length L1 CAM, αv-integrin or HSP90 (d) After overnight siRNA transfection, cells were either left untreated or were either treated with 20 μg/mL etoposide or with 5 μg/mL gemcitabine for 24 hours, followed by either AnnexinV/PI staining and flow cytometry (AnnexinV positive cells over basal) or by caspase-3/-7 assay (n-fold induced caspase-3/-7 activity of basal). (e) PT45-P1res cells were either left untreated (w/o) or were treated with 20 μg/mL etoposide in the absence (w/o) or presence of either 5 μg/mL anti L1CAM antibody (Clone L1-11A) or 5 μg/mL isotype matched control antibody. After 24 hours, cells were analysed by AnnexinV/PI staining or by caspase-3/-7 assay. Means±SD from three independent experiments are shown. * indicates p<0.05.
(§1) As described elsewhere (Sebens Müerköster et al., 2006), apoptosis was determined by staining with annexinV/propidium iodide (Biocarta, Hamburg, Germany) and subsequent fluorescence flow cytometry (GalaxyArgon Plus; DAKO Cytomation, Hamburg, Germany) using the FLOMAX software, and by the detection of caspase-3/-7 activity using a homogeneous luminescent assay (Promega, Mannheim, Germany). All samples were measured in duplicates.
(§2) For L1CAM transfection, PT45-P1 cells were seeded into 6 well plates (2×10^5 cells/well), were grown overnight, followed by transfection with 5 μL/well DIMRIE reagent (Invitrogen) and 0.6 μg/well of the following plasmids: pcDNA3.1 (mock) or pcDNA3.1-L1CAM (L1CAM). Upon transfection for 18 hours, 1 mL medium containing 20% FCS was added and cells were left untreated or were treated as indicated for further 24 hours. For knock down of L1CAM, PT45-P1res cells were seeded into 12 well plates (1×10^5 cells/well), were grown overnight followed by transfection with 12 μL/well RNAiFect reagent (Invitrogen) and 2 μg/well of either Stealth negative control siRNA (Invitrogen) or Stealth L1CAM siRNA (Invitrogen). After overnight transfection, cells were either left untreated or treated as indicated for further 24 hours.

The test system of series [1] is L1CAM. Kind of series: L1CAM expression in PT45-P1res cells (western blotting, flow cytometry, real-time PCR). To be noted: for L1CAM expression (full-length 220 kDa and 32 kD fragment): inhibitor 10 μmol/L, 24 hours. How it is done:
After washing in PBS, cells grown in 6-well culture plates were detached with 5 mmol/L EDTA in PBS and then washed with PBS once again. Blocking was conducted in 1% BSA/PBS for 60 min. at room temperature followed by incubation with the anti L1CAM antibody L1-11A or an isotype matched control antibody (1:1000, in 1% BSA/PBS) at 4° C. overnight. Then, cells were washed three times in PBS followed by incubation (60 min, 37° C.) with a goat-anti mouse antibody conjugated with Alexa flour 488 (Dianova, Hamburg, Germany) diluted 1:500 in 1% BSA/PBS. After washing in PBS, cells were resuspended in 500 μL PBS and analysed by fluorescence flow cytometry.
(§3) Cells were seeded into 6 well and 12 well plates, respectively, and transfected or treated as indicated. Then, cells were washed once with PBS and lysed with 1 volume of 2×SDS sample buffer (128 mmol/L Tris-Base, 4.6% SDS, 10% glycerol). Samples were heated for 5 minutes at 95° C. and put on ice for 2 minutes. Protein concentrations were determined using the Dc Protein assay (BioRad). Ten μg of protein adjusted to an appropriate volume of SDS sample buffer containing 0.2 mg/mL bromphenolblue (Serva, Heidelberg, Germany) and 2.5% β-mercaptoethanol (Biomol, Hamburg, Germany) were submitted to electrophoresis on a 4-20% ProGel-Tris-glycin-gel (Anamed, Darmstadt, Germany) and immunoblotting was performed as described previously (Arlt et al, 2001). For detection of L1CAM, a monoclonal antibody (clone UJ127 from Acris Antibodies) was diluted at a concentration of 0.4 μg/mL in 5% nonfat milk powder and 0.05% Tween in TBS (blotto) and incubated overnight at 4° C. For detection of the cytoplasmic domain of L1CAM, the pcytL1 antibody (Mechtersheimer et al., 2001) was used at a concentration of 1 μg/mL in blotto and incubated overnight at 4° C. As control of equal protein load, a polyclonal rabbit antibody for HSP90 (Santa Cruz, Heidelberg, Germany) was diluted 1:2000 in blotto. The mouse anti CD51 antibody from Beckman Coulter GmbH (Krefeld, Germany) was used at a concentration of 1:500 in blotto for detection of human αv integrin. Incubation with the primary antibodies was performed overnight at 4° C. For detection of the primary antibodies, anti-mouse and anti-rabbit HRP-linked antibodies (Cell Signaling), respectively, were used at a dilution of 1:2000 in blotto-TBST at room temperature for 1 hour. After washing in TBST, blots were developed using the LumiGlo peroxidase detection kit (Cell Signaling).
2 μg of total RNA were reverse-transcribed into single-stranded cDNA, as described previously (Schafer et al., 1999). Two μL of cDNA and 0.2 μmol/L gene-specific primers were adjusted with RNAse-free water to a volume of 15 μL. To this mixture, 15 μL of iQ SYBR Green Supermix (BioRad) were added. Primers for the detection of L1CAM (Gavert et al., 2005) were used under the following conditions: 95° C./1 min; 95° C./1 min, 52° C./30 see, 72° C./30 see for 40 cycles; 72° C./10 min. Primers for the detection of iNOS were from Biosource (Ratingen, Germany) and used under the following PCR conditions: 95° C./5 min; 95° C./45 sec, 60° C./45 sec, 72° C./45 sec for 40 cycles; 72° C./10 min. For control, β-actin was amplified in parallel using primers from BD Biosciences Clontech. […] Data were collected during annealing steps and were further analysed by using the i-Cycler iQ Optical system software (BioRad). All samples were analysed in duplicates and data are expressed as amount of mRNA in arbitrary units.
On the technique in general: In western blotting, separated proteins are transferred to a membrane and probed.

The subject of series [2] is L1CAM transfected PT45-P1 cells. Kind of series: Caspase-3/-7 assay in L1CAM transfected PT45-P1 cells. To be noted: inhibitor 10 μmol/L, 20 μg/mL etoposide 24 hours. How it is done: (§4) PT45-P1res cells (a,b) or PT45-P1 cells transfected with L1CAM or an empty control vector (mock) (c,d) were left untreated (w/o) or were either treated with Tapi-0, Tapi-1, GM6001 or L685,458 (each 10 μmol/L) for 24 hours. (a,c) Cellular lysates were subjected to western blotting using either the antibody clone UJ127 from Acris detecting only full-length L1CAM or the pcytL1 antibody detecting also the cytoplasmic part of L1CAM. HSP90 was detected as a control for equal protein load. (b,d) Thirty minutes after treatment with the respective inhibitor, cells were either left untreated or treated with 20 μg/mL etoposide for 24 hours. Then, cells were analysed for caspase-3/-7 activity expressed as n-fold induction of caspase-3/-7 activity of basal. Means±SD from three independent experiments are shown. * indicates p<0.05.
as §1, §2

In series [3] the test system is L1CAM. The series is described as follows: L1CAM cleavage by western blotting in L1CAM transfected PT45-P1 cells. To be noted: inhibitor 10 μmol/L, 24 hours. On the procedure:
as §4, §3

Series [4] in a line: Induction of apoptosis, Nicoletti staining, in HEK293-hL1 cells. The note with it: human; L1-expressing HEK293; C2-ceramide 40 μM or staurosporine 2 μM, 24 h, serum-free, Nicoletti staining; read-out: cells still viable after treatment. On the procedure:
(§5) Cells (1×10^5 cells per well) were cultured in duplicate in 6 well culture plates and, after washing once with PBS, incubated for the indicated timepoints with or without apoptotic stimuli in serum-free medium. Staurosporine (2 μM), C2-ceramide (40 μM) or cisplatin (17 μM) were used as apoptotic reagents. For hypoxia studies, cells were incubated for different time points under hypoxic conditions (1% O2) using a Reming Bioinstruments chamber and oxygen regulator (Reming Bioinstruments, Redfield, N.Y.).
(§6) For quantification of DNA fragmentation, supernatants were centrifuged at 200×g. The cell pellet was washed once in PBS (pH 7.4) and lysed in a hypotonic lysis buffer (0.1% sodium citrate, 0.1% Triton X-100, 50 μg/ml propidiumiodite) at 4° C. overnight. The nuclei were then analyzed for DNA content by flow cytometry. The staining of cells for flow cytometry with mAbs and PE-conjugated secondary antibodies has been described. Cells were analysed with a FACScan using Cellquest or FlowJo software from Becton Dickinson (Heidelberg, Germany).

Series [5] in a line: Induction of apoptosis, Nicoletti staining, in HEK293 cells. To be noted: human; wild-type (parental) HEK293; C2-ceramide 40 μM or staurosporine 2 μM, 24 h, serum-free, Nicoletti staining; read-out: cells still viable after treatment. On the procedure: as §5, §6
A further series has as its system NO release. Kind of series: NO-assay in supernatants of PT45-P1res cells. The note with it: 250 ng/mL IL1-RA 24 hours. How it is done: PT45-P1res cells were transfected with a control siRNA or with a L1CAM specific siRNA. (a) RNA from transfected PT45-P1res cells was subjected to RT and subsequent Real-time PCR using primers specific for iNOS. In parallel, a Real-time PCR was conducted for β-actin, which was used as a control. Results from one representative out of three experiments are shown. Data are expressed as amount of mRNA in arbitrary units. Each sample was measured in duplicates. (b) siRNA transfected cells (16 h) were either left untreated or were treated with 250 ng/mL IL1RA for 24 hours. Then, supernatants were cleared and subjected to a commercial NO assay. The amount of NO was normalized to equal cell number which was determined in parallel (expressed as μmol NO/10^5 cells). (c) siRNA transfected cells (16 h) were either left untreated or were treated with 250 ng/mL IL1-RA and 20 μg/mL etoposide, either alone or in combination for 24 hours. Then, cells were analysed for caspase-3/-7 activity expressed as n-fold induced caspase-3/-7 activity of basal. Means±SD from three independent experiments are shown. * indicates p<0.05.
Cells were seeded for transfection and cultured as described above. […] NO secreted into cell culture supernatants was quantified using the Total nitric oxide (NO) calorimetric assay (R&D Systems). […] Concentrations of measured NO were normalized to the cell numbers determined in parallel.

For `CC(=O)NC(C(=O)O)C(C)(C)SN=O` (racemic) [SNAP, S-Nitroso-N-acetyl-D,L-penicillamine], the “increased caspase activity during L1CAM knock-down” value in the series on PT45-P1res cells (200 μmol/L SNAP with 20 μg/mL etoposide, 24 hours) is “completely reversed the increased caspase activity”.
For the molecule `CNC(=O)[C@H](Cc1c[nH]c2ccccc12)NC(=O)[C@@H](CC(=O)NO)CC(C)C` [GM6001], the “apoptosis induction after etoposide treatment (caspase-3/-7)” value with PT45-P1res cells is “did not significantly affect apoptosis induction after etoposide treatment”. Also, in the series on L1CAM [1], the “L1CAM expression (full-length 220 kDa and 32 kD fragment)” value is listed as “neither of the inhibitors changed L1 CAM expression”. In series [2], the “apoptosis inducing effect of etoposide (caspase-3/-7)” value was “nor affect the apoptosis inducing effect of etoposide”. For the same molecule, the “expression of full-length L1CAM and level of the 32 kD fragment” value in the series with L1CAM [3] is “did neither influence the expression of full-length L1CAM nor increased the level of the 32 kD fragment”.
For `CC(C)C[C@H](NC(=O)[C@H](Cc1ccccc1)C[C@@H](O)[C@H](Cc1ccccc1)NC(=O)OC(C)(C)C)C(=O)N[C@@H](Cc1ccccc1)C(N)=O` [L685,458], in that order: “did not significantly affect apoptosis induction after etoposide treatment”, “neither of the inhibitors changed L1 CAM expression”, “nor affect the apoptosis inducing effect of etoposide” and “did neither influence the expression of full-length L1CAM nor increased the level of the 32 kD fragment”.
As to `CC(C)C[C@H](CC(=O)NO)C(=O)N[C@@H](Cc1ccc2ccccc2c1)C(=O)N[C@@H](C)C(=O)NCCN` [Tapi-1], the “apoptosis induction after etoposide treatment (caspase-3/-7)” value in the series with PT45-P1res cells is “did not significantly affect apoptosis induction after etoposide treatment”. In the series with L1CAM [1], the “L1CAM expression (full-length 220 kDa and 32 kD fragment)” value was “neither of the inhibitors changed L1 CAM expression”. Moreover, the “apoptosis inducing effect of etoposide (caspase-3/-7)” value in series [2] is given as “nor affect the apoptosis inducing effect of etoposide”. Moreover, the “expression of full-length L1CAM and level of the 32 kD fragment” value in the series with L1CAM [3] is listed as “did neither influence the expression of full-length L1CAM nor increased the level of the 32 kD fragment”.
Take `CN[C@@H]1C[C@H]2O[C@@](C)([C@@H]1OC)n1c3ccccc3c3c4c(c5c6ccccc6n2c5c31)C(=O)NC4` [staurosporine]: the results for the viability at 24 h, 2 μM in series [4] and in series [5] were 77% and 59%, respectively.
In the case of “IL1-RA: Interleukin 1 receptor antagonist from R&D Systems”, the “etoposide induced caspase activation” value with PT45-P1res cells (250 ng/mL IL1-RA, control transfected cells) is recorded as “increased”. Besides, in the series on L1CAM [1] (250 ng/mL IL1-RA, 6 or 24 hours), the “L1CAM expression (mRNA and protein)” value was “reduced L1CAM expression”. In addition, the NO levels result with NO release (cells with L1CAM knock down) is recorded as “no further reducing effect”; in the series with NO release (control siRNA transfected cells), “could be decreased”.
